Laboratory results as given in patent US11623924B2, “Modulators of alpha-1 antitrypsin” (Vertex Pharmaceuticals Incorporated, priority 2018, dated 2023).
pEC50: −log10 of the molar value.

Molecular target: T1, NL20 human bronchial epithelial cells expressing human Z-AAT (Homo sapiens, UniProt P01009, E366K)
T1 construct: expressed in transfected cells; host or cells: NL20 human bronchial epithelial cells (NL20-SI line, doxycycline added)
Assay: AAT Function Assay (MSD Assay NL20-SI Cell Line)
Format: cell-based
Settings: functionally active AAT (AAT-hNE complex) in supernatant of NL20 cells expressing human Z-AAT; read-out: NL20 Func. (EC50)
Procedure: A. AAT Function Assay (MSD Assay NL20-SI Cell Line)
Alpha-1 antitrypsin (AAT) is a SERPIN (serine protease inhibitor) that inactivates enzymes by binding to them covalently. This assay measured the amount of functionally active AAT in a sample in the presence of the disclosed compounds 1-215 by determining the ability of AAT to form an irreversible complex with human neutrophil Elastase (hNE). In practice, the sample (cell supernatant, blood sample, or other) was incubated with excess hNE to allow AAT-Elastase complex to be formed with all functional AAT in the sample. This complex was then captured to a microplate coated with an anti-AAT antibody. The complex captured to the plate was detected with a labeled anti-Elastase antibody and quantitated using a set of AAT standards spanning the concentration range present in the sample. Meso Scale Discovery (MSD) plate reader, Sulfo-tag labeling, and microplates were used to provide high sensitivity and wide dynamic range.
• 1. Harvest NL20 human bronchial epithelial cells expressing human Z-AAT in OptiMEM™ containing Pen/Strep (P/S) • 2. Seed at 16,000 cells/well in 30 μL (384 well plate) • 3. Centrifuge plates briefly up to speed (1200 rpm) and place into 37° C. incubator overnight Day 2: Compound Addition and Coating Plates with Capture Antibody Compound Addition: • 1. Dispense 40 μL of OptiMEM™ (P/S) with doxycycline (1:1000 stock=0.1 μM final) to each well of the compound plate using a multidrop Combi in hood • 2. Remove cell plate from incubator, flip/blot and take immediately to Bravo to transfer compounds • 3. Return plates to incubator overnight Coat MSD Plates • 1. Dilute capture antibody (Polyclonal Goat anti-AAT) to 5 μg/mL (1:200) in PBS (no BSA). • 2. Dispense 25 μL of diluted capture antibody into all wells of MSD 384-well High Bind plate using the Multidrop equipped with a standard cassette. • 3. Incubate overnight at 4° C. Prepare Blocker A (BSA) Solutions • 1. Prepare solution of 5% MSD Blocker A (BSA) following the manufacturer's instructions. • 2. Further dilute the 5% MSD Blocker A in PBS to 1% (Blocker A) as needed. Day 3: Run MSD Assay
Block Plates • 1. Wash plate 1× with 50 μL Wash buffer (PBS+0.5% Tween 20), and adds 35 μL 5% Block A buffer to block non-specific binding on washer dispenser • 2. Rotate plates on shaker for 1 hour at 600 rpm
Prepare M-AAT Standards • 1. Dilute M-AAT stock to 1.6 μg/mL in 1% BSA Blocker A (Stock in −70° C.); then prepare 12×1:2 serial dilutions in 1% Blocker A • 2. The top starting final concentration on MSD plate is 320 ng/mL. These dilutions correspond to a final concentration of 320, 160, 80, 40, 20, 10, 5, 2.5, 1.25, 0.625, 0.312, 0.156 ng/mL.
Dilution Plate • 1. Add 80 μL of 1% Assay buffer to all wells except columns 1/24 (standards) with Multidrop Combi • 2. Add diluted standards to columns 1 and 24 • 3. Centrifuge dilution plates 1200 rpm briefly
Cell Plate • 1. Aspirate columns which will have the standards from the cell plates in the hood using 16-pin aspirator
Prepare Human Neutrophil Elastase (hNE) • 1. Prepare 1 μg/mL Human Neutrophil Elastase by diluting in 1% Blocker A. • a. Small 100 μg vial—add 1 mL PBS (100 μg/mL) • i. This can then be diluted 1:100 in 1% Assay Buffer for a final 1 μg/mL concentration
MSD—Add hNE (20 μL/well) • 1. After the MSD plate has blocked for at least 1 hour, wash plate 1× with 50 μL Wash buffer (PBS+0.5% Tween 20) and then add 20 μL hNE to each well
Bravo—Cell Plate—Dilution Plate—MSD Plate
Using the Bravo aspirate 10 μL from the cell plate, transfer to the dilution plate (9-fold dilution)
• 1. Mix 25 μL 3×, then aspirate 5 μL, transfer to MSD plate (5-fold dilution) • 2. Mix 10 μL 3×. Total dilution is 45 fold. • 3. Shake plates at 600 rpm for 1.5 hours
Add Functional detection hNE antibody • 1. Wash plate 1× with wash buffer • 2. […]

T1 sequence (P01009 25-418 E366K): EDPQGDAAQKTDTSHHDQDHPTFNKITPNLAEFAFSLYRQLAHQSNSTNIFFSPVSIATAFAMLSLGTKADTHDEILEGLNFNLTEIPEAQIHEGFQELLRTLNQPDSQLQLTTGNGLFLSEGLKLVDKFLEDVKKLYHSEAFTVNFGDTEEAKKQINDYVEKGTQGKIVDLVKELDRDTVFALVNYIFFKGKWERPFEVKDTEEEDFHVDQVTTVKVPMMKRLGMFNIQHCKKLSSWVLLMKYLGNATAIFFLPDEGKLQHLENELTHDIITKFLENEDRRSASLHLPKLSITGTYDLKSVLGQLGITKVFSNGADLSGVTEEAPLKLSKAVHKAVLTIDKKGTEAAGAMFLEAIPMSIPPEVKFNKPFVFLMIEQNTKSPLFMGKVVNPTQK

First: C[C@]1(C(=O)O)C[C@H](c2c(C3CCOCC3)n(-c3ccc(F)cc3)c3cc4cn[nH]c4cc32)C1 (single isomer, unassigned) [Compound 115]
Second: O=C(O)C1CC2(C1)CC(c1c(C3CCOC3)n(-c3ccc(F)cc3)c3cc4cn[nH]c4cc13)C2 (single isomer, unassigned) [Compound 141, 6-[5-(4-fluorophenyl)-6-tetrahydrofuran-3-yl-1H-pyrrolo[2,3-f]indazol-7-yl]spiro[3.3]heptane-2-carboxylic acid]
The pEC50 of the first is higher: 5.52 to 5.94 for the first, < 5.52 for the second.

Cc1cc(-n2c(C3CCOCC3)c(C3CC4(CC(C(=O)O)C4)C3)c3cc4[nH]nc(C)c4cc32)ccc1F (single isomer, unassigned) [Compound 127, 6-[5-(4-fluoro-3-methyl-phenyl)-3-methyl-6-tetrahydropyran-4-yl-1H-pyrrolo[2,3-f]indazol-7-yl]spiro[3.3]heptane-2-carboxylic acid] and O=C(O)C1CC2(C1)CC(c1c(C3CCOCC3)n(-c3ccc(F)cc3)c3cc4cn[nH]c4c(F)c13)C2 (single isomer, unassigned) [Compound 136, 6-[8-fluoro-5-(4-fluorophenyl)-6-tetrahydropyran-4-yl-1H-pyrrolo[2,3-f]indazol-7-yl]spiro[3.3]heptane-2-carboxylic acid] cannot be ordered by pEC50: > 5.94 for the first, > 5.94 for the second.

First: Cc1cc(-n2c(C3CCOCC3)c(C3CC4(CC(C(=O)O)C4)C3)c3cc4[nH]nc(C)c4cc32)ccc1F (single isomer, unassigned) [Compound 128, 6-[5-(4-fluoro-3-methyl-phenyl)-3-methyl-6-tetrahydropyran-4-yl-1H-pyrrolo[2,3-f]indazol-7-yl]spiro[3.3]heptane-2-carboxylic acid]
Second: O=C(O)C1CC2(C1)CC(c1c(C3CCOCC3)n(-c3ccc(F)cc3)c3cc4cn[nH]c4c(F)c13)C2 (single isomer, unassigned) [Compound 137, 6-[8-fluoro-5-(4-fluorophenyl)-6-tetrahydropyran-4-yl-1H-pyrrolo[2,3-f]indazol-7-yl]spiro[3.3]heptane-2-carboxylic acid]
The pEC50 of the first is lower: 5.52 to 5.94 for the first, > 5.94 for the second. The second is the more potent here.

O=C(O)C1CC2(C1)CC(c1c(C3CCOC3)n(-c3ccc(F)cc3)c3cc4cn[nH]c4cc13)C2 (single isomer, unassigned) [Compound 142, 6-[5-(4-fluorophenyl)-6-tetrahydrofuran-3-yl-1H-pyrrolo[2,3-f]indazol-7-yl]spiro[3.3]heptane-2-carboxylic Acid] and CC(=O)N1CCC(Cc2c(C3CCOCC3)n(-c3ccc(F)cc3)c3cc4cn[nH]c4cc23)C1 (stereo in doubt) [Compound 213, 1-[(3S)-3-[[5-(4-fluorophenyl)-6-tetrahydropyran-4-yl-1H-pyrrolo[2,3-f]indazol-7-yl]methyl]pyrrolidin-1-yl]ethanone] cannot be ordered by pEC50: < 5.52 for the first, < 5.52 for the second.

CC(C)c1c(CCC(=O)OC2O[C@H](C(=O)O)[C@@H](O)[C@H](O)[C@H]2O)c2cc3[nH]ncc3cc2n1-c1ccc(F)cc1 (stereo in doubt) [Compound 173, (2S,3S,4S,5R)-6-[3-[5-(4-fluorophenyl)-6-isopropyl-1H-pyrrolo[2,3-f]indazol-7-yl]propanoyloxy]-3,4,5-trihydroxy-tetrahydropyran-2-carboxylic Acid] and CC(C)c1c(CCC(=O)N[C@@H]2C(=O)NC[C@H]2O)c2cc3[nH]ncc3cc2n1-c1ccc(F)cc1 (stereo in doubt) [Compound 211, 3-[5-(4-fluorophenyl)-6-isopropyl-1H-pyrrolo[2,3-f]indazol-7-yl]-N-[(3S,4R)-4-hydroxy-2-oxo-pyrrolidin-3-yl]propanamide] cannot be ordered by pEC50: < 5.52 for the first, < 5.52 for the second.

First: Cc1cc(-n2c(C(C)C)c(I)c3cc4[nH]ncc4cc32)ccc1F [Compound 1, 5-(4-fluoro-3-methyl-phenyl)-7-iodo-6-isopropyl-1H-pyrrolo[2,3-f]indazole]
Second: Cc1cc(-n2c(C(C)C)c(C#N)c3cc4[nH]ncc4cc32)ccc1F [Compound 10, 5-(4-fluoro-3-methyl-phenyl)-6-isopropyl-1H-pyrrolo[2,3-f]indazole-7-carbonitrile]
The pEC50 of the first is higher: 5.52 to 5.94 for the first, < 5.52 for the second.

CCOC(=O)c1c(C(C)C)n(-c2ccc(F)c(C)c2)c2cc3cn[nH]c3cc12 [Compound 2, ethyl 5-(4-fluoro-3-methyl-phenyl)-6-isopropyl-1H-pyrrolo[2,3-f]indazole-7-carboxylate] and CCNC(=O)c1c(C(C)C)n(-c2ccc(F)c(C)c2)c2cc3cn[nH]c3cc12 [Compound 6, N-ethyl-5-(4-fluoro-3-methyl-phenyl)-6-isopropyl-1H-pyrrolo[2,3-f]indazole-7-carboxamide] cannot be ordered by pEC50: < 5.52 for the first, < 5.52 for the second.

Cc1cc(-n2c(C(C)C)c(C(=O)O)c3cc4[nH]ncc4cc32)ccc1F [Compound 3, 5-(4-fluoro-3-methyl-phenyl)-6-isopropyl-1H-pyrrolo[2,3-f]indazole-7-carboxylic Acid] and Cc1cc(-n2c(C(C)C)c(CCC(=O)O)c3cc4[nH]ncc4cc32)ccc1F [Compound 16, 3-[5-(4-fluoro-3-methyl-phenyl)-6-isopropyl-1H-pyrrolo[2,3-f]indazol-7-yl]propanoic acid] fall in the same range of pEC50: 5.52 to 5.94 for the first, 5.52 to 5.94 for the second.

Cc1cc(-n2c(C(C)C)c(C(=O)N3CCOCC3)c3cc4[nH]ncc4cc32)ccc1F [Compound 4, [5-(4-fluoro-3-methyl-phenyl)-6-isopropyl-1H-pyrrolo[2,3-f]indazol-7-yl]-morpholino-methanone] and Cc1cc(-n2c(C(C)C)c(C(=O)N3CCN(C)CC3)c3cc4[nH]ncc4cc32)ccc1F [Compound 5, [5-(4-fluoro-3-methyl-phenyl)-6-isopropyl-1H-pyrrolo[2,3-f]indazol-7-yl]-(4-methylpiperazin-1-yl)methanone] cannot be ordered by pEC50: < 5.52 for the first, < 5.52 for the second.

Cc1cc(-n2c(C(C)C)c(C(=O)NC3COC3)c3cc4[nH]ncc4cc32)ccc1F [Compound 7, 5-(4-fluoro-3-methyl-phenyl)-6-isopropyl-N-(oxetan-3-yl)-1H-pyrrolo[2,3-f]indazole-7-carboxamide] and Cc1cc(-n2c(C(C)C)c(N3CCOCC3=O)c3cc4[nH]ncc4cc32)ccc1F [Compound 9, 4-[5-(4-fluoro-3-methyl-phenyl)-6-isopropyl-1H-pyrrolo[2,3-f]indazol-7-yl]morpholin-3-one] cannot be ordered by pEC50: < 5.52 for the first, < 5.52 for the second.

Cc1cc(-n2c(C(C)C)c(N3CCCC3=O)c3cc4[nH]ncc4cc32)ccc1F [Compound 8, 1-[5-(4-fluoro-3-methyl-phenyl)-6-isopropyl-1H-pyrrolo[2,3-f]indazol-7-yl]pyrrolidin-2-one] and C=Cc1c(C(C)C)n(-c2ccc(F)c(C)c2)c2cc3cn[nH]c3cc12 [Compound 12, 5-(4-fluoro-3-methyl-phenyl)-6-isopropyl-7-vinyl-1H-pyrrolo[2,3-f]indazole] cannot be ordered by pEC50: < 5.52 for the first, < 5.52 for the second.

First: Cc1cc(-n2c(C(C)C)c(S(C)(=O)=O)c3cc4[nH]ncc4cc32)ccc1F [Compound 11, 5-(4-fluoro-3-methyl-phenyl)-6-isopropyl-7-methylsulfonyl-1H-pyrrolo[2,3-f]indazole]
Second: Cc1cc(-n2c(C(C)C)c(CC3(C(=O)O)CC3)c3cc4[nH]ncc4cc32)ccc1F [Compound 17, 1-[[5-(4-fluoro-3-methyl-phenyl)-6-isopropyl-1H-pyrrolo[2,3-f]indazol-7-yl]methyl]cyclopropanecarboxylic Acid]
The pEC50 of the first is lower: 5.52 to 5.94 for the first, > 5.94 for the second. The second is the more potent here.
